Reference: patent US9777004B2, “Amino-substituted imidazopyridazines” (Bayer Intellectual Property GmbH, priority 2012, dated 2017)
pIC50: −log10 of the molar value.

Tests used:
[1] = target: T1, human full-length MKNK1 (Homo sapiens (Human), UniProt Q9BUB5, T344D); assay: MKNK1 kinase high ATP assay (TR-FRET); assay type: biochemical; details: 2 mM ATP, 15 min preincubation
Procedure: MKNK1 Kinase High ATP Assay
MKNK1-inhibitory activity at high ATP of compounds of the present invention after their preincubation with MKNK1 was quantified employing the TR-FRET-based MKNK1 high ATP assay as described in the following paragraphs.
As substrate for the kinase reaction the biotinylated peptide biotin-Ahx-[…] (C-terminus in amide form) was used, which can be purchased e.g. from the company Biosyntan (Berlin-Buch, Germany).
(§1) For the assay 50 nL of a 100fold concentrated solution of the test compound in DMSO was pipetted into a black low volume 384well microtiter plate (Greiner Bio-One, Frickenhausen, Germany), 2 μL of a solution of MKNK1 in aqueous assay buffer [50 mM HEPES pH 7.5, 5 mM magnesium chloride, 1.0 mM dithiothreitol, 0.005% (v/v) Nonidet-P40 (Sigma)] was added and the mixture was incubated for 15 min at 22° C. to allow pre-binding of the test compounds to the enzyme before the start of the kinase reaction. Then the kinase reaction was started by the addition of 3 μL of a solution of adenosine-tri-phosphate (ATP, 3.3 mM=>final conc. in the 5 μL assay volume is 2 mM) and substrate (0.1 μM=>final conc. in the 5 μL assay volume is 0.06 μM) in assay buffer and the resulting mixture was incubated for a reaction time of 30 min at 22° C. The concentration of MKNK1 was adjusted depending of the activity of the enzyme lot and was chosen appropriate to have the assay in the linear range, typical concentrations were in the range of 0.003 μg/mL. The reaction was stopped by the addition of 5 μL of a solution of TR-FRET detection reagents (5 nM streptavidine-XL665 [Cisbio Bioassays, Codolet, France] and 1 nM anti-ribosomal protein S6 (pSer236)-antibody from Invitrogen [#44921G] and 1 nM LANCE EU-W1024 labeled ProteinG [Perkin-Elmer, product no. AD0071]) in an aqueous EDTA-solution (100 mM EDTA, 0.1% (w/v) bovine serum albumin in 50 mM HEPES pH 7.5).
(§2) The resulting mixture was incubated for 1 h at 22° C. to allow the formation of complex between the phosphorylated biotinylated peptide and the detection reagents. Subsequently the amount of phosphorylated substrate was evaluated by measurement of the resonance energy transfer from the Eu-chelate to the streptavidine-XL. Therefore, the fluorescence emissions at 620 nm and 665 nm after excitation at 350 nm were measured in a TR-FRET reader, e.g. a Rubystar (BMG Labtechnologies, Offenburg, Germany) or a Viewlux (Perkin-Elmer). The ratio of the emissions at 665 nm and at 622 nm was taken as the measure for the amount of phosphorylated substrate.

[2] = target: T1, human full-length MKNK1; assay: MKNK1 kinase assay (TR-FRET); assay type: biochemical; details: 10 μM ATP, 15 min preincubation
Procedure: MKNK1-inhibitory activity of compounds of the present invention was quantified employing the MKNK1 TR-FRET assay as described in the following paragraphs.
As substrate for the kinase reaction the biotinylated peptide biotin-Ahx-[…] (C-terminus in amide form) was used which can be purchased e.g. form the company Biosyntan (Berlin-Buch, Germany).
as §1, with “16.7 μM=>final” for “3.3 mM=>final”, “10 μM)” for “2 mM)”, “45” for “30”, “0.05” for “0.003”
as §2

T1 sequence (Q9BUB5 other isoform, or with tags, fused parts or gaps T344D): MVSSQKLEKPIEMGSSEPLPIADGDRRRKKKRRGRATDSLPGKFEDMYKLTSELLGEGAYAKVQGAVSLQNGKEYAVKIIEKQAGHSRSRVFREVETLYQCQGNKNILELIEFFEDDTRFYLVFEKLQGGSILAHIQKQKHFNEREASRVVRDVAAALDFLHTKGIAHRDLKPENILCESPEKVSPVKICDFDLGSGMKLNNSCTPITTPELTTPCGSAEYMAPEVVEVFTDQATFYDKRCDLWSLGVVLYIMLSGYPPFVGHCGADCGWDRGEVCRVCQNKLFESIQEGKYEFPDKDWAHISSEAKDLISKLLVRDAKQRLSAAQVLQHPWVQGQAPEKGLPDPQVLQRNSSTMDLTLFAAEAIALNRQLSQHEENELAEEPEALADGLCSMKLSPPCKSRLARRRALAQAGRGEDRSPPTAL

Structure (SMILES) | pIC50 [1] | pIC50 [2]
CNCC(Oc1ccc2ncc(-c3cc4ccccc4o3)n2n1)c1ccccc1 (single isomer, unassigned; (-)) [Example 29, (-)-2-{[3-(1-Benzofuran-2-yl)imidazo[1,2-b]pyridazin-6-yl]oxy}-N-methyl-2-phenylethanamine] | 6.91 | 7.01
COc1cccc2oc(-c3cnc4ccc(OC[C@H]5CNCCO5)nn34)cc12 [Example 2, 3-(4-Methoxy-1-benzofuran-2-yl)-6-[(2R)-morpholin-2-ylmethoxy]imidazo[1,2-b]pyridazine] | 7.96 | 
CC(C)(C)CNCCCOc1ccc2ncc(-c3cc4ccccc4o3)n2n1 [Example 4, N-(3-{[3-(1-Benzofuran-2-yl)imidazo[1,2-b]pyridazin-6-yl]oxy}propyl)-2,2-dimethylpropan-1-amine] | 7.89 | 8.40
c1ccc2oc(-c3cnc4ccc(OCCNCC5CC5)nn34)cc2c1 [Example 6, 2-{[3-(1-Benzofuran-2-yl)imidazo[1,2-b]pyridazin-6-yl]oxy}-N-(cyclopropylmethyl)ethanamine] | 7.74 | 8.15
CC(C)NCCCOc1ccc2ncc(-c3cc4ccccc4o3)n2n1 [Example 9, 3-{[3-(1-Benzofuran-2-yl)imidazo[1,2-b]pyridazin-6-yl]oxy}-N-(propan-2-yl)propan-1-amine] | 7.70 | 8.15
CC(C)(C)CNCCOc1ccc2ncc(-c3cc4ccccc4o3)n2n1 [Example 12, N-(2-{[3-(1-Benzofuran-2-yl)imidazo[1,2-b]pyridazin-6-yl]oxy}ethyl)-2,2-dimethylpropan-1-amine] | 7.60 | 7.96
c1ccc2oc(-c3cnc4ccc(OCC5CNC5)nn34)cc2c1 [Example 14, 6-(Azetidin-3-ylmethoxy)-3-(1-benzofuran-2-yl)imidazo[1,2-b]pyridazine] | 7.57 | 
c1ccc2oc(-c3cnc4ccc(OCC[C@@H]5CCCN5)nn34)cc2c1 [Example 15, 3-(1-Benzofuran-2-yl)-6-{2-[(2S)-pyrrolidin-2-yl]ethoxy}imidazo[1,2-b]pyridazine] | 7.52 | 7.92
c1ccc2oc(-c3cnc4ccc(OCCNC5CC5)nn34)cc2c1 [Example 17, N-(2-{[3-(1-Benzofuran-2-yl)imidazo[1,2-b]pyridazin-6-yl]oxy}ethyl)cyclopropanamine] | 7.44 | 8.10
CC(C)(C)NCCOc1ccc2ncc(-c3cc4ccccc4o3)n2n1 [Example 18, N-(2-{[3-(1-Benzofuran-2-yl)imidazo[1,2-b]pyridazin-6-yl]oxy}ethyl)-2-methylpropan-2-amine] | 7.43 | 7.62
Clc1ccc2oc(-c3cnc4ccc(OC[C@H]5CNCCO5)nn34)cc2c1 [Example 20, 3-(5-Chloro-1-benzofuran-2-yl)-6-[(2R)-morpholin-2-ylmethoxy]imidazo[1,2-b]pyridazine] | 7.39 | 
CNC(C)COc1ccc2ncc(-c3cc4ccccc4o3)n2n1 (stereo not shown) [Example 24, 1-{[3-(1-Benzofuran-2-yl)imidazo[1,2-b]pyridazin-6-yl]oxy}-N-methylpropan-2-amine] | 7.26 | 
Clc1ccc2oc(-c3cnc4ccc(OCC[C@@H]5CCCN5)nn34)cc2c1 [Example 25, 3-(5-Chloro-1-benzofuran-2-yl)-6-{2-[(2S)-pyrrolidin-2-yl]ethoxy}imidazo[1,2-b]pyridazine] | 7.04 | 7.41
CNCC(C)Oc1ccc2ncc(-c3cc4ccccc4o3)n2n1 (stereo not shown) [Example 26, 2-{[3-(1-Benzofuran-2-yl)imidazo[1,2-b]pyridazin-6-yl]oxy}-N-methylpropan-1-amine] | 7.03 | 
CC(C)NCC(Oc1ccc2ncc(-c3cc4ccccc4o3)n2n1)c1ccccc1 (stereo not shown) [Example 27, Formic acid-N-(2-{[3-(1-benzofuran-2-yl)imidazo[1,2-b]pyridazin-6-yl]oxy}-2-phenylethyl)propan-2-amine (1:1)] | 7.12 | 7.44
CC(C)(C)CNCC(Oc1ccc2ncc(-c3cc4ccccc4o3)n2n1)c1ccccc1 (stereo not shown) [Example 30, N-(2-{[3-(1-Benzofuran-2-yl)imidazo[1,2-b]pyridazin-6-yl]oxy}-2-phenylethyl)-2,2-dimethylpropan-1-amine] | 6.62 | 6.64
c1ccc2oc(-c3cnc4ccc(O[C@@H]5CCNC5)nn34)cc2c1 [Example 31, 3-(1-Benzofuran-2-yl)-6-[(3R)-pyrrolidin-3-yloxy]imidazo[1,2-b]pyridazine] | 7.31 | 7.66
Fc1cccc2oc(-c3cnc4ccc(OC[C@H]5CNCCO5)nn34)cc12 [Example 33, 3-(4-Fluoro-1-benzofuran-2-yl)-6-[(2R)-morpholin-2-ylmethoxy]imidazo[1,2-b]-pyridazine] | 7.82 | 8.00
